Experimental data: ChEMBL document CHEMBL1153300, “Identification and SAR of novel diaminopyrimidines. Part 2: The discovery of RO-51, a potent and selective, dual P2X(3)/P2X(2/3) antagonist for the treatment of pain” (Bioorg Med Chem Lett, 2009)

Experiments:
[1] = target: T1, P2X2/P2X3 heterotrimeric receptor (Homo sapiens, UniProt P56373+Q9UBL9); experiment: Antagonist activity at human P2X2/3 receptor expressed in 1321n1c cells by FLIPR; assay type: functional, cell-based
T1 sequence (Q9UBL9 whole entry): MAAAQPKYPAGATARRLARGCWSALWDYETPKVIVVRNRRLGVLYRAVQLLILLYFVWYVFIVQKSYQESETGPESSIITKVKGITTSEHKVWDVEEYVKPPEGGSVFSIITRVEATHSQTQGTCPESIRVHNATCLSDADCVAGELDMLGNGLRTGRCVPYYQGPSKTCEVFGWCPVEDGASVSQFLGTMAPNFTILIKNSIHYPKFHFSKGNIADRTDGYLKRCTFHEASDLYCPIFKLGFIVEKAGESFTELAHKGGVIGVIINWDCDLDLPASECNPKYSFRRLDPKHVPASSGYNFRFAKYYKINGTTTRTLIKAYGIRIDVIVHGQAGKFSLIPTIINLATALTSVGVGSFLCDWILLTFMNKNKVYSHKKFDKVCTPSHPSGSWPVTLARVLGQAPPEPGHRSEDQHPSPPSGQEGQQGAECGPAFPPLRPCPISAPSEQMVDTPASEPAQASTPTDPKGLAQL
T1 sequence (P56373 whole entry): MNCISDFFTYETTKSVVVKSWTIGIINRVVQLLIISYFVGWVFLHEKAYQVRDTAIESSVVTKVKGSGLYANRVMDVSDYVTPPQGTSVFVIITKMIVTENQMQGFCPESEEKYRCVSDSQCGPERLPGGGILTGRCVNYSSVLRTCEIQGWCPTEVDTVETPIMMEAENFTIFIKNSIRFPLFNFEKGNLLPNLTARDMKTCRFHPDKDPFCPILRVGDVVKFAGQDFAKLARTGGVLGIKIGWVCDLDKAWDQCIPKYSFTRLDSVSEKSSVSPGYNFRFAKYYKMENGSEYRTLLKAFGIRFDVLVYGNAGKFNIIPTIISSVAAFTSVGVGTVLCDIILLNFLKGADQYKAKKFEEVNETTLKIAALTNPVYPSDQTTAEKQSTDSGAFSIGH

P2X purinoceptor 3 = target: T2, P2X purinoceptor 3 (Rattus norvegicus, UniProt P49654); experiment: Antagonist activity at rat P2X3 receptor expressed in CHO cells by FLIPR; assay type: functional, cell-based
T2 sequence (P49654 whole entry): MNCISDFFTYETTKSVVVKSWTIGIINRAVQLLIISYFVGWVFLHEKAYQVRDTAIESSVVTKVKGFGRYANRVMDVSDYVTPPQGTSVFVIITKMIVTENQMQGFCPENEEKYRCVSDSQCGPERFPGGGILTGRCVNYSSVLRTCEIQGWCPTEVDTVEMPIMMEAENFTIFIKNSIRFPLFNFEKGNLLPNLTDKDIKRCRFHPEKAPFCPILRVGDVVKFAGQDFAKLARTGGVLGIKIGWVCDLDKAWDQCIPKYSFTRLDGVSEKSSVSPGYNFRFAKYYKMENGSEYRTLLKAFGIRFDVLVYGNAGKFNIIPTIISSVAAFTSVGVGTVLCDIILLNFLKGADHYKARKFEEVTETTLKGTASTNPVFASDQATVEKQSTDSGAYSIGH

[2] = Cmax in rat at 2 mg/kg, po administered as single dose; assay type: ADME, organism-based; set-up: dose 2 mg/kg, route oral; conditions: in vivo
Canis familiaris = organism: Canis familiaris; experiment: Clearance in dog; assay type: ADME, organism-based, Canis lupus familiaris; conditions: in vivo
[3] = AUC in rat at 2 mg/kg, po administered as single dose; assay type: ADME, organism-based; set-up: dose 2 mg/kg, route oral; conditions: plasma
P2X purinoceptor 5 = P2X purinoceptor 5 (Homo sapiens, UniProt Q93086); experiment: Antagonist activity at P2X5 receptor up to 10 uM; assay type: functional
Sequence of P2X purinoceptor 5 (Q93086 whole entry): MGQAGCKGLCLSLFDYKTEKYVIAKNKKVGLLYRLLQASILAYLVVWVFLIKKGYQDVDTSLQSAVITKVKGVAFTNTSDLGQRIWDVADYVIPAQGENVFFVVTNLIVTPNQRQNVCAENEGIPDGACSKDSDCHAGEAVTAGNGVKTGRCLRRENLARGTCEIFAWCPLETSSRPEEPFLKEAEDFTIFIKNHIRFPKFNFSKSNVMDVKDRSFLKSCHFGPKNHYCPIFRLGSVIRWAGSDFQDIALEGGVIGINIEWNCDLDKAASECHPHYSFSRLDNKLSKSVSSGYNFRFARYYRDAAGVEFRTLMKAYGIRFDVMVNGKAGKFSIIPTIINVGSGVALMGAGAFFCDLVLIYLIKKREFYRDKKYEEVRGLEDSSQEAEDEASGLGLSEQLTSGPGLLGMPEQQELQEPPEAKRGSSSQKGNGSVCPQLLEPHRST

[4] = Cmax in rat at 2 mg/kg, iv administered as single dose; assay type: ADME, organism-based; set-up: dose 2 mg/kg, route intravenous; conditions: in vivo
[5] = Oral bioavailability in rat at 2 mg/kg administered as single dose; assay type: ADME, organism-based; conditions: in vivo
[6] = AUC in rat at 2 mg/kg, iv administered as single dose; assay type: ADME, organism-based; set-up: dose 2 mg/kg, route intravenous; conditions: plasma
[7] = Tmax in rat at 2 mg/kg, po administered as single dose; assay type: ADME, organism-based; set-up: dose 2 mg/kg, route oral; conditions: in vivo
[8] = Tmax in rat at 2 mg/kg, iv administered as single dose; assay type: ADME, organism-based; set-up: dose 2 mg/kg, route intravenous; conditions: in vivo
[9] = Apparent permeability from apical to basolateral side of human Caco-2 cells; assay type: ADME, cell-based
[10] = Half life in dog; assay type: ADME, organism-based, Canis lupus familiaris; conditions: in vivo
[11] = Oral bioavailability in dog; assay type: ADME, organism-based, Canis lupus familiaris; conditions: in vivo
[12] = Half life in rat at 2 mg/kg, po administered as single dose; assay type: ADME, organism-based; set-up: dose 2 mg/kg, route oral; conditions: in vivo
[13] = Half life in rat at 2 mg/kg, iv administered as single dose; assay type: ADME, organism-based; set-up: dose 2 mg/kg, route intravenous; conditions: in vivo
Rattus norvegicus = experiment: Clearance in rat at 2 mg/kg, iv administered as single dose; assay type: ADME, organism-based; set-up: dose 2 mg/kg, route intravenous; conditions: in vivo

Work on COc1cc(C(C)C)c(Oc2cnc(NCCN(C)C)nc2N)cc1I yielded an IC50 ([1]; read-out: pIC50 (converted)) of 251 nM and an IC50 (P2X purinoceptor 3; read-out: pIC50 (converted)) of 158 nM.
Work on COc1cc(C(C)C)c(Oc2cnc(NCCO)nc2N)cc1I yielded an IC50 ([1]; read-out: pIC50 (converted)) of 15.8 nM.
In the case of COc1cc(C(C)C)c(Oc2cnc(NCC(F)(F)F)nc2N)cc1I, the IC50 ([1]; read-out: pIC50 (converted)) is reported as 200 nM and the IC50 (P2X purinoceptor 3; read-out: pIC50 (converted)) is reported as 79.4 nM.
For COc1cc(C(C)C)c(Oc2cnc(NC3CCN(S(C)(=O)=O)CC3)nc2N)cc1I, the IC50 ([1]; read-out: pIC50 (converted)) was 316 nM and the IC50 (P2X purinoceptor 3; read-out: pIC50 (converted)) was 100 nM.
For COc1cc(C(C)C)c(Oc2cnc(NC(C)(C)CO)nc2N)cc1I, the IC50 ([1]; read-out: pIC50 (converted)) was 794 nM.
For COc1cc(C(C)C)c(Oc2cnc(NCCN3CCOCC3)nc2N)cc1I, the IC50 ([1]; read-out: pIC50 (converted)) was 398 nM and the IC50 (P2X purinoceptor 3; read-out: pIC50 (converted)) was 158 nM.
COc1cc(C(C)C)c(Oc2cnc(NC(CO)CO)nc2N)cc1I gave a Cmax [2] of 104 ng/mL, a clearance (Canis familiaris) of 4.65 mL/min/kg and an AUC [3] of 237 ng·h/mL. For the same compound, the IC50 (P2X purinoceptor 5) was > 10000 nM, the Cmax [4] was 554 ng/mL and the bioavailability [5] was 48%. The AUC [6] was 495 ng·h/mL, the Tmax [7] was 0.833 h and the Tmax [8] was 0.167 h. The Papp A→B [9] was 9.43 ×10⁻⁶ cm/s, the half-life [10] was 3.88 h and the bioavailability [11] was 79%. For the same compound, the half-life [12] was 1.52 h, the half-life [13] was 1.07 h and the clearance (Rattus norvegicus) was 71.9 mL/min/kg.
With COc1cc(C(C)C)c(Oc2cnc(N(C)C)nc2N)cc1I the IC50 ([1]; read-out: pIC50 (converted)) was > 10000 nM and the IC50 (P2X purinoceptor 3; read-out: pIC50 (converted)) was > 10000 nM.
COc1cc(C(C)C)c(Oc2cnc(N)nc2N)cc1I gave a Cmax [2] of 64.3 ng/mL, a clearance (Canis familiaris) of 13 mL/min/kg and an AUC [3] of 240 ng·h/mL. For the same compound, the Cmax [4] was 589 ng/mL, the bioavailability [5] was 39% and the AUC [6] was 628 ng·h/mL. It also gave a Tmax [7] of 1.33 h, a Tmax [8] of 0.083 h and an IC50 ([1]; read-out: IC50) of 25 nM. The IC50 ([1]; read-out: pIC50 (converted)) was 39.8 nM, the IC50 (P2X purinoceptor 3; read-out: IC50) was 13 nM and the half-life [10] was 1.5 h. For the same compound, the bioavailability [11] was 72%, the half-life [12] was 2.09 h and the half-life [13] was 0.94 h. For the same compound, the clearance (Rattus norvegicus) was 52.8 mL/min/kg.
